According to ChEMBL document CHEMBL4680157, “Design, synthesis and biological evaluation of novel TRβ selective agonists sustained by ADME-toxicity analysis” (Eur J Med Chem, 2020):

Columns and labels:
[1] = Cytotoxicity against human U2OS cells assessed as cell growth inhibition at 10 uM after 24 hrs relative to control; type: cell-based
[2] = Cytotoxicity against human U2OS cells assessed as cell growth inhibition at 10 uM after 48 hrs relative to control; type: cell-based
[3] = Cytotoxicity against human HEK293 cells assessed as cell growth inhibition at 10 uM after 24 hrs relative to control; type: cell-based
[4] = Cytotoxicity against human HEK293 cells assessed as cell growth inhibition at 10 uM after 48 hrs relative to control; type: cell-based
[5] = Cytotoxicity against human hTERT cells assessed as cell growth inhibition at 10 uM after 24 hrs relative to control; type: cell-based, hTERT-BJ
[6] = Cytotoxicity against human hTERT cells assessed as cell growth inhibition at 10 uM after 48 hrs relative to control; type: cell-based, hTERT-BJ
[7] = Cytotoxicity against human MCF7 cells assessed as cell growth inhibition at 10 uM after 24 hrs relative to control; type: cell-based
[8] = Cytotoxicity against human MCF7 cells assessed as cell growth inhibition at 10 uM after 48 hrs relative to control; type: cell-based
CYP1A2 = molecular target: T1, CYP1A2 (Homo sapiens, UniProt P05177); test: Inhibition of CYP1A2 (unknown origin) at 10 uM relative to control; type: ADME
T1 sequence (P05177 whole entry): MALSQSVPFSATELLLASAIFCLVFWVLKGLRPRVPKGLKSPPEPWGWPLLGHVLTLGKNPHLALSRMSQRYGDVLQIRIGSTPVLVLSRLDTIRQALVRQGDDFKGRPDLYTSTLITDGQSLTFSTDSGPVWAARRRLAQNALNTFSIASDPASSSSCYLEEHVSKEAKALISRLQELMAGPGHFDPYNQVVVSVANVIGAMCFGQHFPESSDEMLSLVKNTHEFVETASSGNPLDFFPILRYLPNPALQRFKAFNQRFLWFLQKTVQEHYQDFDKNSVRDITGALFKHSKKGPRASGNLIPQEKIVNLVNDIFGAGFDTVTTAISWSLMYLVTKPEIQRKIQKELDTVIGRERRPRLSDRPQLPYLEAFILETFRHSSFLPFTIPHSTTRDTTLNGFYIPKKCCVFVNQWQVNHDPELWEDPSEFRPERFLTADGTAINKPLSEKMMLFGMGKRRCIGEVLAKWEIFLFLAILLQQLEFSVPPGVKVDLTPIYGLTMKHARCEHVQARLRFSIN

CYP2C9 = CYP2C9 (Homo sapiens, UniProt P11712); test: Inhibition of CYP2C9 (unknown origin) at 10 uM relative to control; type: ADME
CYP2C19 = CYP2C19 (Homo sapiens, UniProt P33261); test: Inhibition of CYP2C19 (unknown origin) at 10 uM relative to control; type: ADME
CYP2C19, sequence (P33261 whole entry): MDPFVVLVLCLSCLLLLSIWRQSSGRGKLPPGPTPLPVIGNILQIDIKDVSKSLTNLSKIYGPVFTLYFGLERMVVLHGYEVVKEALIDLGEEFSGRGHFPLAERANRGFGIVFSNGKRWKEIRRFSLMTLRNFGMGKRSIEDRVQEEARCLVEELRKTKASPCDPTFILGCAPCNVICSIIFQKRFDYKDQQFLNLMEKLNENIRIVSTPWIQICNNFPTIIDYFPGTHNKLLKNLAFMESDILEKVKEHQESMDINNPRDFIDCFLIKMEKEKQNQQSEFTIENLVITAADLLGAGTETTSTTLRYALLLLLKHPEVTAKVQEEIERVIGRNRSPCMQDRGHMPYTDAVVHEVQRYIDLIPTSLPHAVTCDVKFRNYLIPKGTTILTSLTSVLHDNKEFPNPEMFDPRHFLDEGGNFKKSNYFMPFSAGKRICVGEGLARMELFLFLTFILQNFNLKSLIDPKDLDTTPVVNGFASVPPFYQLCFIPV

CYP2D6 = CYP2D6 (Homo sapiens, UniProt P10635); test: Inhibition of CYP2D6 (unknown origin) at 10 uM relative to control; type: ADME
CYP2D6, sequence (P10635 whole entry): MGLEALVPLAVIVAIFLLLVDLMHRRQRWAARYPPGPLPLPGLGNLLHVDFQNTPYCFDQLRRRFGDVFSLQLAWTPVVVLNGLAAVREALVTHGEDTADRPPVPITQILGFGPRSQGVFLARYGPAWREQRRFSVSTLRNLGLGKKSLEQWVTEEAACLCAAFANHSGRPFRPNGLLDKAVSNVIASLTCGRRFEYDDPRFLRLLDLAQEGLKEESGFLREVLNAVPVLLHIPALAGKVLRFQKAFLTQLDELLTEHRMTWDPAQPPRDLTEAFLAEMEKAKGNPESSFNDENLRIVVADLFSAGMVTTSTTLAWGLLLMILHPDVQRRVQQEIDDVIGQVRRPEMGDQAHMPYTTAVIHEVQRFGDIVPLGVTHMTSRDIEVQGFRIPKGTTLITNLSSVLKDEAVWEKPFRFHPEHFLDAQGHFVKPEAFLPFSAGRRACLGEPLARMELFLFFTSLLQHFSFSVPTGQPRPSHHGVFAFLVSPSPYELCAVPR

CYP3A4 = CYP3A4 (Homo sapiens, UniProt P08684); test: Inhibition of CYP3A4 (unknown origin) at 10 uM relative to control; type: ADME
hERG (KCNH2) = hERG (KCNH2) (Homo sapiens, UniProt Q12809); test: Inhibition of human ERG at 10 uM by fluorescence polarization assay relative to control
hERG (KCNH2), sequence (Q12809 whole entry): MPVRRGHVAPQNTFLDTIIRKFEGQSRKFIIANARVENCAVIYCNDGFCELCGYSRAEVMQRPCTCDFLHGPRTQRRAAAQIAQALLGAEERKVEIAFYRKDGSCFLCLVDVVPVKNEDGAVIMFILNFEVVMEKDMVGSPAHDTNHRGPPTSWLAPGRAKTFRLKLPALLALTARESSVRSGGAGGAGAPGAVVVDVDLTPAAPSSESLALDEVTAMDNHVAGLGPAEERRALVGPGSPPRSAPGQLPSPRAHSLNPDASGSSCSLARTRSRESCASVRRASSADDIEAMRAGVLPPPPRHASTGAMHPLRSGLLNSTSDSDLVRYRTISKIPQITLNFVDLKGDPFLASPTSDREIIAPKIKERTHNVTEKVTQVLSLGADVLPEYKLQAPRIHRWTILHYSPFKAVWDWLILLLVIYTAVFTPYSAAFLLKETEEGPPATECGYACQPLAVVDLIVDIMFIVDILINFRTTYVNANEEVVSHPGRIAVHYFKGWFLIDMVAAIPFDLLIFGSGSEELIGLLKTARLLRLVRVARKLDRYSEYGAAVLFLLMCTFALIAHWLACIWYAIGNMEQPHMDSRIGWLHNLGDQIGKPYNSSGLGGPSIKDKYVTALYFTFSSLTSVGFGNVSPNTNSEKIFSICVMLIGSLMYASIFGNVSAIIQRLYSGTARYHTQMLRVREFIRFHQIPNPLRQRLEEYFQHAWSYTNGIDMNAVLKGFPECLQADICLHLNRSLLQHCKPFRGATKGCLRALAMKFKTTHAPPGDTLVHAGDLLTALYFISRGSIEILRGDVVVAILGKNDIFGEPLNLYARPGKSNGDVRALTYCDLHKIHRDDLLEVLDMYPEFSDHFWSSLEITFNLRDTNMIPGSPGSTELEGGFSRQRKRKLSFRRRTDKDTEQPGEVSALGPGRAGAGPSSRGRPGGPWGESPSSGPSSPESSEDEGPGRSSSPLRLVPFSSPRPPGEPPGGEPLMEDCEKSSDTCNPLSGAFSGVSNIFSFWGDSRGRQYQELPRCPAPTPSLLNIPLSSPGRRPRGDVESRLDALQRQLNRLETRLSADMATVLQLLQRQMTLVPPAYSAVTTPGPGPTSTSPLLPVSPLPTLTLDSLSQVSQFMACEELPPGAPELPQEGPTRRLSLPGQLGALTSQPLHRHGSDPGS

SIRT7 = molecular target: T2, SIRT7 (Homo sapiens, UniProt Q9NRC8); test: Inhibition of SIRT7 (unknown origin) at 10 uM relative to control
T2 sequence (Q9NRC8 whole entry): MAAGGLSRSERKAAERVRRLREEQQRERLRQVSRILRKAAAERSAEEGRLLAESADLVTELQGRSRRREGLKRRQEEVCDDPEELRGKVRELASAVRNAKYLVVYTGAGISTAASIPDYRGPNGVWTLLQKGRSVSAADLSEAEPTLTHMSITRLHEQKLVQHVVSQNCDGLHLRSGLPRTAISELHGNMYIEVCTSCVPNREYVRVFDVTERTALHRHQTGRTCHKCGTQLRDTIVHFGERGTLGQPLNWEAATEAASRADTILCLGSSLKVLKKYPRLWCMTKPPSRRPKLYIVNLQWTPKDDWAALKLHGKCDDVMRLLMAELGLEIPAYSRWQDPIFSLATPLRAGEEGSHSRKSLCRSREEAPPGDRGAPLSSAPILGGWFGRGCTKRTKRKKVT

HDAC4 = HDAC4 (Homo sapiens, UniProt P56524); test: Inhibition of HDAC4 (unknown origin) at 10 uM relative to control
HDAC4, sequence (P56524 whole entry): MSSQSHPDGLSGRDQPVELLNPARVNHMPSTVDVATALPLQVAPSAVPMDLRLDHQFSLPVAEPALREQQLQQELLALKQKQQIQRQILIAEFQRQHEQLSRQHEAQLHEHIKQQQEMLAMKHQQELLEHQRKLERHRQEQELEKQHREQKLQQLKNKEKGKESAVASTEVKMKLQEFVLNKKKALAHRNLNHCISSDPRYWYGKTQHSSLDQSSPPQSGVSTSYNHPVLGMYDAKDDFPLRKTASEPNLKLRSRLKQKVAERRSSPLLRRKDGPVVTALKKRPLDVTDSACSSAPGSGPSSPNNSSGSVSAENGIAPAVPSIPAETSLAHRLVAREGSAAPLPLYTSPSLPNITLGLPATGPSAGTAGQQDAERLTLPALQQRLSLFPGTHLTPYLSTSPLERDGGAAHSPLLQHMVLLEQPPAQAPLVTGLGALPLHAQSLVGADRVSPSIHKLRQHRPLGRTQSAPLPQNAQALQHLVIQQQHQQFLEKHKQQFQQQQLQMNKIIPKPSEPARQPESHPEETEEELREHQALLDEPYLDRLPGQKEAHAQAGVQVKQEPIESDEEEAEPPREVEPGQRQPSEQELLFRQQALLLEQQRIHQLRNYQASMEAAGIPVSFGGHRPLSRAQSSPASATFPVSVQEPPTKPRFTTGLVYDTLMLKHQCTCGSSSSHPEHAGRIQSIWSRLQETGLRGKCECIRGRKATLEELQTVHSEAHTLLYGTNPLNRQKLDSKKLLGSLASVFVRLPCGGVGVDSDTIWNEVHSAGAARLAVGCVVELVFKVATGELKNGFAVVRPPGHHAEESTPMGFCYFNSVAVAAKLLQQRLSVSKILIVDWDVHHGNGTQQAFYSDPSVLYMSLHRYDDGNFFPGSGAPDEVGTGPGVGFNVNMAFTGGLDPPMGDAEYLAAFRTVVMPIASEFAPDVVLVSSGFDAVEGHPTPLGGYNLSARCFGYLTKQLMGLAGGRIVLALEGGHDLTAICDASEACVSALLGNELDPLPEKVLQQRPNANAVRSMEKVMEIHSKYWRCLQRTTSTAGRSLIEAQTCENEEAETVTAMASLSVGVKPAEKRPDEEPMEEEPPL

HDAC6 = molecular target: T3, HDAC6 (Homo sapiens, UniProt Q9UBN7); test: Inhibition of HDAC6 (unknown origin) at 10 uM relative to control
T3 sequence (Q9UBN7 whole entry): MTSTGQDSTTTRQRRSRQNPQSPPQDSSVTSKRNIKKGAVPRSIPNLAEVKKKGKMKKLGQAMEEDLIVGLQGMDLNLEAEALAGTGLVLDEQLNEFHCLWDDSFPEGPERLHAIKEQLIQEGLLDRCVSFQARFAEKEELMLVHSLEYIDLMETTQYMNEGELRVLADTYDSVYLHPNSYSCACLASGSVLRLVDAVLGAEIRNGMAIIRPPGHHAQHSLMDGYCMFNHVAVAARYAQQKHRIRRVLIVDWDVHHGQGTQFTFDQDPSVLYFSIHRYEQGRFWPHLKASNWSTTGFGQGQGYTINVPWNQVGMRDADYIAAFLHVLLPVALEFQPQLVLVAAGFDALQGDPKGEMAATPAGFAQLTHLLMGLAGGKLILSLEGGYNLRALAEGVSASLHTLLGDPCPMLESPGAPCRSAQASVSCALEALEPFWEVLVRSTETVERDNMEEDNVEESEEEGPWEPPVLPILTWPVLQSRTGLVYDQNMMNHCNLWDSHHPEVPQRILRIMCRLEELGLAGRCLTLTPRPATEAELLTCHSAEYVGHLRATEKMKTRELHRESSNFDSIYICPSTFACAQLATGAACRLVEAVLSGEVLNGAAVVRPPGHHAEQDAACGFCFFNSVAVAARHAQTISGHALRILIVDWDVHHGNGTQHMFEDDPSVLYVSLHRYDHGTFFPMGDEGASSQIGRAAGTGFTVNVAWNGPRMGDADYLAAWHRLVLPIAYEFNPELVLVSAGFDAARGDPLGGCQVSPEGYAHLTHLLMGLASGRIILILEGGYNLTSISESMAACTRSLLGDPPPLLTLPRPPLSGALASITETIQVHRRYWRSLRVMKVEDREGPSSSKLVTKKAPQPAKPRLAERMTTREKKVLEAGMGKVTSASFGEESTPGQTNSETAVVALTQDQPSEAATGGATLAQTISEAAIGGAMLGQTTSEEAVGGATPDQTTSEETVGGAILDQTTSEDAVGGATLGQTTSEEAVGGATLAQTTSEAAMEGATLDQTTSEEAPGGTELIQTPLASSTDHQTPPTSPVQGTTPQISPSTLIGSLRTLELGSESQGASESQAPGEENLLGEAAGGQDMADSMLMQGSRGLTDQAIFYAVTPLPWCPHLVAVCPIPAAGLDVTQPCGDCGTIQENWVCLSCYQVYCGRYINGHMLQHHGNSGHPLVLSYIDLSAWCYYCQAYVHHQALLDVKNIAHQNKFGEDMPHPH

HDAC8 = molecular target: T4, HDAC8 (Homo sapiens, UniProt Q9BY41); test: Inhibition of HDAC8 (unknown origin) at 10 uM relative to control
T4 sequence (Q9BY41 whole entry): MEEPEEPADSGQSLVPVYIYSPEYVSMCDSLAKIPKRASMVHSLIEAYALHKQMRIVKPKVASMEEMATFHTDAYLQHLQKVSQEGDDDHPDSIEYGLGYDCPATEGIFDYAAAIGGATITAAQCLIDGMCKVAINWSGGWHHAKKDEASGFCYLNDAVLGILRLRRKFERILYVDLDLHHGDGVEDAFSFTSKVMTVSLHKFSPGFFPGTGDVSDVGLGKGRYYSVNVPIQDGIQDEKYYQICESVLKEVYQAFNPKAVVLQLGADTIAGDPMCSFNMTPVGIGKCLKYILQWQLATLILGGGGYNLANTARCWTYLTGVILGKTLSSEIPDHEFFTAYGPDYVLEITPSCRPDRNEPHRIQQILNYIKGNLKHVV

HDAC9 = HDAC9 (Homo sapiens, UniProt Q9UKV0); test: Inhibition of HDAC9 (unknown origin) at 10 uM relative to control
HDAC9, sequence (Q9UKV0 whole entry): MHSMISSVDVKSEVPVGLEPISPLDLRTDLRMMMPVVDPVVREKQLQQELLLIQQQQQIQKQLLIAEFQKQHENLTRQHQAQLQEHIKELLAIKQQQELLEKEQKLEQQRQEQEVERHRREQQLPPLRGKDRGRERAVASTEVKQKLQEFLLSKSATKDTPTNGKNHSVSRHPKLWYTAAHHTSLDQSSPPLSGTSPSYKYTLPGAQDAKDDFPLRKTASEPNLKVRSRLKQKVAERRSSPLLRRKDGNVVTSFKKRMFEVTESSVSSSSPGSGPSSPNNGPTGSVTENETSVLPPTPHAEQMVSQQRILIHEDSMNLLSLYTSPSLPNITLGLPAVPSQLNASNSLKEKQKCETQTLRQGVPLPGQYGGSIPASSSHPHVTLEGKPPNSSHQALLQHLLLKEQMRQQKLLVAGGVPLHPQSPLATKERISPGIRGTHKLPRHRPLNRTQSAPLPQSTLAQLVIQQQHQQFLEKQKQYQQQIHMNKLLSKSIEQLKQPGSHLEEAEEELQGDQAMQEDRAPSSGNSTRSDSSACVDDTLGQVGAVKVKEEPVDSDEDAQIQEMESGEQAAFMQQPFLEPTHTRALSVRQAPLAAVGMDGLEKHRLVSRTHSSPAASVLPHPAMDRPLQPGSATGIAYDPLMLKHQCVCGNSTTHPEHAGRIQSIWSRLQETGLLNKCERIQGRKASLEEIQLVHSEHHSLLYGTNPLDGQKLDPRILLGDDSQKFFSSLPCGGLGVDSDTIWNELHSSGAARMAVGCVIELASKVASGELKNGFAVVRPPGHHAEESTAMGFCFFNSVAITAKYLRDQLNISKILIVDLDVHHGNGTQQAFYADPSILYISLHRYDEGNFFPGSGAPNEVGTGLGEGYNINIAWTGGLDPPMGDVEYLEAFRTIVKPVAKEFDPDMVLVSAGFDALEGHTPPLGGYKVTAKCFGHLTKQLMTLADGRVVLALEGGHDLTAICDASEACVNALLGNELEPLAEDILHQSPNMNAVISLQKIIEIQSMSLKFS

[9] = molecular target: 3',5'-cyclic-AMP phosphodiesterase 4C (Homo sapiens) (UniProt Q08493); test: Inhibition of PDE4C1 (unknown origin) at 10 uM relative to control
3',5'-cyclic-AMP phosphodiesterase 4C (Homo sapiens), sequence (Q08493 whole entry): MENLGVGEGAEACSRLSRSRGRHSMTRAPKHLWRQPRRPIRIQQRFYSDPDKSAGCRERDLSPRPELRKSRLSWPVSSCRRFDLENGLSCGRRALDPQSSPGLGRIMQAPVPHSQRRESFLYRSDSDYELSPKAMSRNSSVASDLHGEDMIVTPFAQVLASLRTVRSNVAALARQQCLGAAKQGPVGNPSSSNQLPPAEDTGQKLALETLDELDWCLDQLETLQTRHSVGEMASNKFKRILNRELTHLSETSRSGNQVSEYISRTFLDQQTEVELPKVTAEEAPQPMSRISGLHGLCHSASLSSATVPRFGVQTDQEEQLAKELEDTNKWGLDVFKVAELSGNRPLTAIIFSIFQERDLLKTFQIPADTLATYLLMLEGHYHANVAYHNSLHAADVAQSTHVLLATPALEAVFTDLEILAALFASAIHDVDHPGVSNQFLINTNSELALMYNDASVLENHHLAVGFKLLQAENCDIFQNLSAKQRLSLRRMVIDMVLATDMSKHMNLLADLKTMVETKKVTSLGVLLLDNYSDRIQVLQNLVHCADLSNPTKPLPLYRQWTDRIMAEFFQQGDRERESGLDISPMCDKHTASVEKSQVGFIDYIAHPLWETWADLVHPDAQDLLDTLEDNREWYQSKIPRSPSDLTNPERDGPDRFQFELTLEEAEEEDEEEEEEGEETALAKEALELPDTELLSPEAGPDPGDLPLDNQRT

Aurora B = Aurora B (Homo sapiens, UniProt Q96GD4); test: Inhibition of Aurora B (unknown origin) at 10 uM relative to control

CC(=O)Nc1ccc(Cc2ccc(OCC(=O)O)cc2)cc1C(C)C
inhibition at 24 h, 10 µM [1]: < 50%
inhibition at 48 h, 10 µM [2]: < 50%
inhibition at 24 h, 10 µM [3]: < 50%
inhibition at 48 h, 10 µM [4]: < 50%
inhibition at 24 h, 10 µM [5]: < 50%
inhibition at 48 h, 10 µM [6]: < 50%
inhibition at 24 h, 10 µM [7]: < 50%
inhibition at 48 h, 10 µM [8]: < 50%
inhibition at 10 µM (CYP1A2): < 50%
inhibition at 10 µM (CYP2C9): < 50%
inhibition at 10 µM (CYP2C19): < 50%
inhibition at 10 µM (CYP2D6): < 50%
inhibition at 10 µM (CYP3A4): < 50%
inhibition at 10 µM (hERG (KCNH2)): < 40%
inhibition at 10 µM (SIRT7): < 50%
inhibition at 10 µM (HDAC4): < 50%
inhibition at 10 µM (HDAC6): < 50%
inhibition at 10 µM (HDAC8): < 50%
inhibition at 10 µM (HDAC9): < 50%
inhibition [9]: < 50%
inhibition at 10 µM (Aurora B): < 50%

CC(C)c1cc(Cc2ccc(OCC(=O)O)cc2)ccc1N
inhibition at 24 h, 10 µM [1]: < 50%
inhibition at 48 h, 10 µM [2]: < 50%
inhibition at 24 h, 10 µM [3]: < 50%
inhibition at 48 h, 10 µM [4]: < 50%
inhibition at 24 h, 10 µM [5]: < 50%
inhibition at 48 h, 10 µM [6]: < 50%
inhibition at 24 h, 10 µM [7]: < 50%
inhibition at 48 h, 10 µM [8]: < 50%
inhibition at 10 µM (CYP1A2): < 50%
inhibition at 10 µM (CYP2C9): < 50%
inhibition at 10 µM (CYP2C19): < 50%
inhibition at 10 µM (CYP2D6): < 50%
inhibition at 10 µM (CYP3A4): < 50%
inhibition at 10 µM (hERG (KCNH2)): < 40%
inhibition at 10 µM (SIRT7): < 50%
inhibition at 10 µM (HDAC4): < 50%
inhibition at 10 µM (HDAC6): < 50%
inhibition at 10 µM (HDAC8): < 50%
inhibition at 10 µM (HDAC9): < 50%
inhibition [9]: < 50%
inhibition at 10 µM (Aurora B): < 50%

Nc1ccc(Cc2ccc(OCC(=O)O)cc2F)cc1
inhibition at 24 h, 10 µM [1]: < 50%
inhibition at 48 h, 10 µM [2]: < 50%
inhibition at 24 h, 10 µM [3]: < 50%
inhibition at 48 h, 10 µM [4]: < 50%
inhibition at 24 h, 10 µM [5]: < 50%
inhibition at 48 h, 10 µM [6]: < 50%
inhibition at 24 h, 10 µM [7]: < 50%
inhibition at 48 h, 10 µM [8]: < 50%
inhibition at 10 µM (CYP1A2): < 50%
inhibition at 10 µM (CYP2C9): 51%
inhibition at 10 µM (CYP2C19): < 50%
inhibition at 10 µM (CYP2D6): < 50%
inhibition at 10 µM (CYP3A4): < 50%
inhibition at 10 µM (hERG (KCNH2)): > 91%
inhibition at 10 µM (SIRT7): < 50%
inhibition at 10 µM (HDAC4): < 50%
inhibition at 10 µM (HDAC6): < 50%
inhibition at 10 µM (HDAC8): < 50%
inhibition at 10 µM (HDAC9): < 50%
inhibition [9]: < 50%
inhibition at 10 µM (Aurora B): < 50%
